Data taken from patent US20240390383A1, “DIOXAZINES AND THEIR USE IN TREATMENT OF GBA-RELATED DISEASES” (ZEVRA DENMARK A/S, priority 2021, published 2024).

Target: T1, GCase (GBA) in human fibroblast cell line GM10915 harboring the L444P GBA mutation (Homo sapiens, UniProt P04062, L483P)
T1 construct: Human fibroblast cell line GM10915 harboring the L444P GBA mutation; host or cells: GM10915 human fibroblasts
T1 sequence (P04062 40-536 L483P): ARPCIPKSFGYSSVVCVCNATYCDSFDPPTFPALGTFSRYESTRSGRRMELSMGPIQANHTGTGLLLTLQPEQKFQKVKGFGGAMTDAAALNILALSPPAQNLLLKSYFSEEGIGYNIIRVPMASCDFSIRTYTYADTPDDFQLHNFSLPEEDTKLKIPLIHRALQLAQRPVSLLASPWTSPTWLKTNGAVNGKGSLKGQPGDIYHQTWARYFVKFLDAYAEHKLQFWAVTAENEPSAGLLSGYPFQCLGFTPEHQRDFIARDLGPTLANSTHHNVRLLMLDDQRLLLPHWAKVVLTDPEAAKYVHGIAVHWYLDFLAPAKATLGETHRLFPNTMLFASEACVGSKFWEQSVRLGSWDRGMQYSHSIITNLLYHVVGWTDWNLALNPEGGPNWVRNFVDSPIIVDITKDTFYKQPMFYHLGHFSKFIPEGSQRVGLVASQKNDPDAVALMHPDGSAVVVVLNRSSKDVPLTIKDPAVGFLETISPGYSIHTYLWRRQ
Assay: GCase activity assay (4-MUG substrate, normalised to crystal violet staining) in L444P GBA fibroblasts
Format: cell-based
Conditions: 5 days exposure
Procedure, shortened: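 Patient fibroblasts GM10915 (L444P GBA) exposed to compounds for five days over an 8-point range, with fresh dosing every 2–3 days. Intact-cell GCase measured with 2.5 mM 4-MUG at pH 4.0 for 23 h at 37 °C (ex/em 365/445 nm), normalised to crystal violet, as % of PBS basal; Emax is the maximum reached.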

## COC1CNCC(C2=NOCC(CN3CCCCC3)O2)C1 (racemic) [compound 680, rac-3-(5-methoxypiperidin-3-yl)-5-(piperidin-1-ylmethyl)-5,6-dihydro-1,4,2-dioxazine]
Concentration giving 150% GCase activity (1.5-fold induction), 8-point dose range
  GBA EC1.5: 20 µM
Maximum percent GCase activity relative to untreated cells in the dose range tested
  Emax: 209%
